The source made the active and inactive calls. The rule behind the calls is not given here.
What follows are molecules tested against glutathione S-transferase (GST-GSH binding) (assay: GST–glutathione interaction disruption – biochemical, multiplex beads, flow cytometry, HPSMTB buffer, profiling panel (AID 1324;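 note: glutathione beads loaded with GST-green fluorescent protein and no fluorescent Bim peptide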)). Settings: multiplex bead flow cytometry, MCF.

Structure (SMILES) | EC50
COCCCNc1nc(=S)[nH]c2cc(OC)c(OC)cc12 | 5.35 µM
Cc1cc(C)nc(SCc2cc(=O)c(OC(=O)c3ccc(Cl)c([N+](=O)[O-])c3)co2)n1 | 6.13 µM
CCN=c1scc(C)n1/N=C/c1ccc(O)c(O)c1O | inactive
O=C(NCCO)c1ccc2nc(-c3ccco3)c(-c3ccco3)nc2c1 | 9.03 µM
COCCCn1c(N)c(C(=O)Nc2sc3c(c2C(=O)OC)CCCC3)c2nc3ccccc3nc21 | 2.55 µM
Cc1cccc(N=C2NC(=O)/C(=C/C=C/c3ccco3)S2)c1C | inactive
COc1cc(/C=N/Nc2nn3cnnc3c3ccccc23)ccc1O | 2.36 µM
CCCCNc1nc(=S)[nH]c2cc(OC)c(OC)cc12 | inactive

Same assay, conditions: multiplex bead flow cytometry, MCF, hits give high values, concentration not given here

Structure (SMILES) | percent span inhibition
COc1ccc(C(=O)/C=C/c2cc(OC)c(O)c(OC)c2)c(F)c1 | inactive
O=C(CNC(=O)c1ccc(S(=O)(=O)N2CCCC2)cc1)N/N=C/c1ccc(Cl)cc1Cl | inactive
O=C(NCCN1CCOCC1)c1cc(Cl)ccc1[N+](=O)[O-] | inactive
COc1ccccc1-n1c(-c2ccccc2)c[nH]c1=S | inactive
N#C/C(=C(/O)CN1CCN(c2ccccc2F)CC1)c1nc(-c2ccccc2)cs1 | inactive
Cc1cc(-c2nn(-c3ccccc3)cc2/C=C2\SC(N)=NC2=O)ccc1OC(C)C | inactive
O=C(COc1ccccc1)Nc1ccc2c(c1)Cc1cc(NC(=O)COc3ccccc3)ccc1-2 | inactive
CCc1nn2cc(C(=O)c3cc(C)ccc3O)cnc2c1-c1ccc(F)cc1 | inactive
COc1ccc(C2CN(C)CC2C(=O)c2ccc(F)cc2)cc1Cl (configuration not stated) | inactive
O=C(C1=NN[C@@H]2C(=O)N(c3ccccc3C(F)(F)F)C(=O)[C@H]12)c1ccc2ccccc2n1 | inactive
CN(C)c1cccc(NC(=O)C2(C)CC2(Cl)Cl)c1 (configuration not stated) | inactive
CCOc1ccccc1/C=N/NC(=O)CNC(=O)COc1ccccc1 | inactive
CCCc1nnc2n1N=C(c1ccc(-c3cc(Cl)ccc3Cl)o1)CS2 | inactive
CN1CCc2cccc3c2[C@H]1Cc1ccc(O)c(O)c1-3 | inactive
Cc1ccc(C(=O)CCC(=O)Nc2ccc(Cl)c(S(=O)(=O)Nc3cccc(Cl)c3)c2)cc1 | inactive
CCc1nnc(NS(=O)(=O)c2ccc(N=CC3=C(O)CC(C)(C)CC3=O)cc2)s1 | inactive
COc1ccc2nc(C)cc(SCC(=O)N/N=C/c3ccc(O)cc3O)c2c1 | inactive
COC(=O)c1ccc(/C=N/NC(=O)CC(=O)NCc2cccnc2)cc1 | inactive
Nc1c(C(=O)NCC2CCCO2)sc2nc3c(c(-c4ccco4)c12)CC/C3=C\c1ccco1 (configuration not stated) | inactive
O=C(NC1=C(Nc2ccc(Cl)cc2)C(=O)c2ccccc2C1=O)c1ccccc1 | inactive
Cc1ccccc1-c1nc(-c2ccc(NC(=O)c3ccc4c(c3)OCO4)cc2)no1 | inactive
O=C(Nc1nnc(SCc2ccccn2)s1)C1CC(=O)N(c2ccccc2)C1 (configuration not stated) | inactive

Structure (SMILES) | percent span inhibition
Clc1ccc2c(N/N=C/c3cccc(Br)c3)ccnc2c1 | inactive
Cc1ccccc1OCC(=O)N/N=C/c1ccccn1 | inactive
O=S1(=O)N=C(N(CCO)/N=C/C=C/c2ccccc2)c2ccccc21 | inactive
Cc1ccc(NN2C(=O)C=CC2=O)cc1 | inactive
Nc1ccc(Nc2nc(-c3ccncc3)cs2)cc1 | inactive
Cc1ccc2c(c1)c(C)c(C)n2CC(O)Cn1nc(C)c(Br)c1C (configuration not stated) | inactive
CC(/C=C/C(=O)c1ccc(C)cc1)=C\c1ccccc1 | inactive
O=C(/C=C/c1ccc(-c2ccccc2)o1)c1ccccc1 | inactive
O=C(NCCc1ccccc1)c1ccc2nc(-c3ccco3)c(-c3ccco3)nc2c1 | inactive
COc1ccc(-n2c(SCC(=O)Nc3ccc(C(=O)O)cc3)nnc2-c2cccs2)cc1 | inactive
Cc1cc(-c2csc(N)n2)c(C)n1C | inactive
Cc1ccc(/C=C/C(=O)c2ccccc(=O)c2O)cc1C | inactive
O=C1CCc2cc(S(=O)(=O)NCCCC(=O)N3CCN(Cc4ccc5c(c4)OCO5)CC3)ccc2N1 | inactive
O=C1NCCN1C(=O)N(c1ccccc1)c1ccccc1 | inactive
C=CCN1C(=O)/C(=C/c2ccsc2)SC1=S | inactive
CCN(CC)c1ccc(NC(=O)COc2ccccc2C)cc1S(=O)(=O)Nc1ccccc1OC | inactive
COc1ccc(NS(=O)(=O)c2cc(NC(=O)c3ccc(C)o3)ccc2N2CCCCC2)cc1 | inactive
Cc1c(NC2=C(Cl)C(=O)N(c3ccccc3)C2=O)c(=O)n(-c2ccccc2)n1C | inactive
O=C(COc1ccc(Br)cc1CNC1CCCCC1)NCCc1ccccc1 | inactive
Cc1ccc(N=c2ssnc2Cl)cc1 | inactive
CC1C=CCC2C(=O)N(c3ccc(OC(=O)c4cccs4)cc3)C(=O)C12 (configuration not stated) | inactive
COC(=O)Cc1cc(=O)[nH]c(Nc2nc3ccccc3o2)n1 | inactive

Structure (SMILES) | percent span inhibition
COC(=O)C1C2c3ccccc3OC1(C)N=c1s/c(=C/c3cnn(C)c3C)c(=O)n12 (configuration not stated) | inactive
O=C(NCc1ccco1)C1CC2CCC1C2 (configuration not stated) | inactive
COc1ccc(/C=C2\SC(=O)NC2=S)cc1OC | inactive
CCNC(=O)N1c2ccc(OCC)cc2C(C)=CC1(C)C | inactive
COc1ccc2cc(CN(CCc3ccccc3)Cc3nnnn3CC3CCCO3)c(=O)[nH]c2c1 (configuration not stated) | inactive
COc1ccc(COC(=O)NNC(=O)c2ccccc2Cl)cc1 | inactive
Cc1ccc(-c2cc(-c3ccc(Cl)cc3)c(C#N)c(N)n2)o1 | inactive
COCc1cc(CN2CCCC(CNC(=O)c3ccc(F)cc3)C2)ccc1OC (configuration not stated) | inactive
Cc1nn(-c2ccc(Cl)c(Cl)c2)c(C)c1C(=O)O | inactive
O=C(NCc1ccccc1)c1ccc2nc(-c3ccco3)c(-c3ccco3)nc2c1 | inactive
c1ccc(-c2nc(N3CCCCCC3)c3ccccc3n2)nc1 | inactive
COc1cccc2c(SCC(=O)N/N=C/c3ccccc3)cc(C)nc12 | inactive
CCCCCCc1cc2cc(C(=O)Nc3ccccc3)c(=O)oc2cc1O | inactive
CCOC(=O)c1nc(Nc2ccc(C(=O)OC)cc2)c2ccccc2n1 | inactive
CN(CCO)c1cc(Sc2nc3ccccc3s2)c2nonc2c1[N+](=O)[O-] | inactive
CC1Cc2ccccc2N1C(=O)c1ccc(N2CCCC2)c([N+](=O)[O-])c1 (configuration not stated) | inactive
Cc1cccc(Nc2nc(-c3ccncc3)cs2)c1 | inactive
COc1ccc(S(=O)(=O)NCCSc2ccccc2)cc1OC | inactive
CCNCc1cc(Br)c(OCC(=O)Nc2ccccc2)c(OC)c1 | inactive
Oc1ccc(NCc2ccccc2OCc2ccccc2)cc1 | inactive

Source: PubChem BioAssay AID1324 (NMMLSC, 2008)
